Test results published in patent publication US11559575B2, “Multi-epitopic peptide compounds and vaccines against leishmaniasis” (INSTITUT DE RECHERCHE POUR LE DEVELOPPEMENT, priority 2018, dated 2023).
“Also recorded” adds a separate entry of the source.

System: HLA alleles of class II
Test: Affinity of epitopes for HLA alleles of class II
Type: binding, human
Settings: for Affinity HLA alleles of class II: H2B-II core epitopes; for Affinity HLA alleles of class II / Concatenation affinity for the HLA alleles of class II: Table 1; for Concatenation affinity for the HLA alleles of class II: H2B-II peptides
Text: The multiepitopic peptide compounds (24 to 40-mer), having a high affinity with a maximized number of HLA molecules of class I and of class II, such as the affinities for the alleles HLA of class I and HLA of class II of the epitopes in the peptides of the sequences SEQ ID NO: 22, 23, 65, 66, 69, 73, 77, 96, 97, 137, 138, and 157, 185, have a high immunoprevalent potential corresponding to an optimal vaccine coverage, in particular for the populations concerned. The degree of coverage of the peptide compounds of the invention show a very high added value compared with the peptides of the prior art.

**Q.** With “GYFLTDEKT (listed as Leishmania infantum) [SEQ ID NO: 147]” as the sequence, how does the “Concatenation affinity for HLA alleles of class II” value (PSA KC-2.6 core, Table 3) read?
**A.** HLA-DRB1*04:01,; also recorded: HLA-DPA1*02:01/; also recorded: DPB1*01:01

**Q.** “GYFLTDEKTSLVYGD (listed as Leishmania infantum) [SEQ ID NO: 142]” was tested. Which “Concatenation affinity for HLA alleles of class II” value (PSA KC-2.6 peptides, Table 3) did it give?
**A.** HLA-DRB1*01:01, HLA-DRB1*03:01,; also recorded: HLA-DRB1*04:01, HLA-DRB1*07:01,; also recorded: HLA-DRB1*11:01, HLA-DRB3*01:01,; also recorded: HLA-DRB3*02:02,; also recorded: HLA-DPA1*02:01/DPB1*14:01,; also recorded: HLA-DPA1*03:01/DPB1*04:02

**Q.** With “HLSIVADHM (Leishmania major) [SEQ ID NO: 88]” as the sequence, how does the “Concatenation affinity for HLA alleles of class II” value (LmLRAB-IIA core, Table 2) read?
**A.** HLA-DRB1*01:01

**Q.** With “HSVVGRHLSIVADHM (Leishmania major) [SEQ ID NO: 82]” as the sequence, how does the “Concatenation affinity for HLA alleles of class II” value (LmLRAB-IIA peptides, Table 2) read?
**A.** HLA-DRB1*15:01

**Q.** For “HYSEVSAKT (Leishmania major) [SEQ ID NO: 122]”, which “Concatenation affinity for HLA alleles of class II” value (LmlRAB-IIB core, Table 2) is on record?
**A.** HLA-DRB1*04:01

**Q.** Which “Affinity HLA alleles of class II” value does the source give for “INAQMSMSH (Leishmania major) [SEQ ID NO: 44]” here?
**A.** HLA-DRB1*04:01,; also recorded: HLA-DRB1*04:05,; also recorded: HLA-DRB1*09:01,; also recorded: HLA-DRB1*11:01,; also recorded: HLA-DRB1*15:01,; also recorded: HLA-DRB4*01:01,; also recorded: HLA-DRB5*01:01

**Q.** How did the “Concatenation affinity for the HLA alleles of class II” value turn out when “INAQMSMSHRTMKIV (Leishmania major) [SEQ ID NO: 41]” was run?
**A.** HLA-DRB1*04:01, HLA-DRB1*15:01, HLA-DRB1*05:01,; also recorded: HLA-DRB1*03:01, HLA-DRB1*09:01, HLA-DRB1*11:01,; also recorded: HLA-DRB1*01:01, HLA-DRB4*01:01, HLA-DRB1*07:01,; also recorded: HLA-DRB1*13:02

**Q.** For “IRDLDFSNM (listed as Leishmania infantum) [SEQ ID NO: 174]”, which “Concatenation affinity for HLA alleles of class II” value (PSA KC-2.7 core, Table 3) is on record?
**A.** HLA-DRB1*01:01,; also recorded: HLA-DRB4*01:01

**Q.** How did the “Concatenation affinity for HLA alleles of class II” value (LmlRAB-IIB core, Table 2) turn out when “IVTSRKVQE (Leishmania major) [SEQ ID NO: 123]” was run?
**A.** HLA-DRB1*03:01,; also recorded: HLA-DRB1*08:02,; also recorded: HLA-DRB1*11:01

**Q.** With “IVTSRKVQEEVFDLF (Leishmania major) [SEQ ID NO: 105]” as the sequence, how does the “Concatenation affinity for HLA alleles of class II” value (LmlRAB-IIB peptides, Table 2) read?
**A.** HLA-DRB1*03:01, HLA-DRB1*11:01,; also recorded: HLA-DPA1*01:03/DPB1*02:01,; also recorded: HLA-DPA1*01/DPB1*04:01,; also recorded: HLA-DPA1*02:01/DPB1*05:01,; also recorded: HLA-DPA1*02:01/HLA-DPB1*14:01

**Q.** How did the “Concatenation affinity for the HLA alleles of class II” value turn out when “KAINAQMSMSHRTMK (Leishmania major) [SEQ ID NO: 39]” was run?
**A.** HLA-DRB1*07:01, HLA-DRB1*04:01, HLA-DRB1*04:05,; also recorded: HLA-DRB1*09:01, HLA-DRB1*11:01, HLA-DRB1*15:01,; also recorded: HLA-DRB5*01:01, HLA-DRB4*01:01, HLA-DRB1*03:01,

**Q.** “KGRLHSVVGRHLSIV (Leishmania major) [SEQ ID NO: 78]” was tested. Which “Concatenation affinity for HLA alleles of class II” value (LmLRAB-IIA peptides, Table 2) did it give?
**A.** HLA-DRB1*07:01,; also recorded: HLA-DRB5*01:01,; also recorded: HLA-DRB1*11:01,; also recorded: HLA-DRB1*15:01,; also recorded: HLA-DRB1*09:01,; also recorded: HLA-DRB4*01:01

**Q.** Which “Concatenation affinity for HLA alleles of class II” value (LmlRAB-IIB peptides, Table 2) does the source give for “KGRSENAIVTSRKVQ (Leishmania major) [SEQ ID NO: 106]” here?
**A.** HLA-DRB1*01:01, HLA-DRB1*07:01,; also recorded: HLA-DRB1*11:01, HLA-DRB1*12:01,; also recorded: HLA-DRB5*01:01

**Q.** Which “Concatenation affinity for the HLA alleles of class II” value does the source give for “KPKRSWNVYVGRSLK (Leishmania major) [SEQ ID NO: 25]” here?
**A.** HLA-DRB5*01:01, HLA-DRB1*01:01, HLA-DRB1*07:01,; also recorded: HLA-DRB1*09:01, HLA-DRB1*15:01

**Q.** “KRSWNVYVGRSLKAI (Leishmania major) [SEQ ID NO: 27]” was tested. Which “Concatenation affinity for the HLA alleles of class II” value did it give?
**A.** HLA-DRB1*01:01, HLA-DRB1*03:01, HLA-DRB1*04:01,; also recorded: HLA-DRB1*11:01, HLA-DRB1*13:02, HLA-DRB1*07:01,; also recorded: HLA-DRB1*09:01, HLA-DRB1*15:01, HLA-DRB5*01:01,; also recorded: HLA-DPA1*02:01/DPB1*01:01

**Q.** Which “Concatenation affinity for HLA alleles of class II” value (LmlRAB-IIB core, Table 2) does the source give for “LFTDVHYSE (Leishmania major) [SEQ ID NO: 124]” here?
**A.** HLA-DRB1*03:01,; also recorded: HLA-DRB3*01:01,; also recorded: DPB1*04:01,; also recorded: HLA-DPA1*02:01/; also recorded: HLA-DPA1*03:01/; also recorded: DPB1*04:02

**Q.** With “LFTDVHYSEVSAKTK (Leishmania major) [SEQ ID NO: 108]” as the sequence, how does the “Concatenation affinity for HLA alleles of class II” value (LmlRAB-IIB peptides, Table 2) read?
**A.** HLA-DRB1*01:01, HLA-DRB1*04:01,; also recorded: HLA-DRB1*07:01, HLA-DRB1*09:01,; also recorded: HLA-DRB5*01:01, HLA-DPA1*01:03/DPB1*02:01,; also recorded: HLA-DPA1*01/DPB1*04:01,; also recorded: HLA-DPA1*02:01/HLA-DPB1*14:01

**Q.** With “LHSVVGRHL (Leishmania major) [SEQ ID NO: 90]” as the sequence, how does the “Concatenation affinity for HLA alleles of class II” value (LmLRAB-IIA core, Table 2) read?
**A.** HLA-DRB1*11:01; also recorded: HLA-DRB1*15:01; also recorded: HLA-DRB4*01:01; also recorded: HLA-DRB5*01:01; also recorded: HLA-DRB1*07:01; also recorded: HLA-DRB1*09:01

**Q.** Which “Concatenation affinity for HLA alleles of class II” value (LmLRAB-IIA peptides, Table 2) does the source give for “LHSVVGRHLSIVADH (Leishmania major) [SEQ ID NO: 81]” here?
**A.** HLA-DRB1*07:01,; also recorded: HLA-DRB1*15:01,; also recorded: HLA-DRB5*01:01,; also recorded: HLA-DRB1*11:01,; also recorded: HLA-DRB1*09:01,

**Q.** “LKAINAQMS (Leishmania major) [SEQ ID NO: 45]” was tested. Which “Affinity HLA alleles of class II” value did it give?
**A.** HLA-DRB1*04:05,; also recorded: HLA-DRB1*07:01,; also recorded: HLA-DRB1*08:02,; also recorded: HLA-DRB1*09:01,; also recorded: HLA-DRB1*11:01,; also recorded: HLA-DRB4*01:01,; also recorded: HLA-DRB5*01:01

**Q.** “LKAINAQMSMSHRTM (Leishmania major) [SEQ ID NO: 38]” was tested. Which “Concatenation affinity for the HLA alleles of class II” value did it give?
**A.** HLA-DRB1*07:01, HLA-DRB1*04:01, HLA-DRB1*04:05,; also recorded: HLA-DRB1*09:01, HLA-DRB1*11:01, HLA-DRB1*15:01,; also recorded: HLA-DRB5*01:01, HLA-DRB1*01:01, HLA-DRB4*01:01,
